Experimental data from ChEMBL document CHEMBL1201862, “PubChem BioAssay data set” (2004).
The source made the active and inactive calls. Rule as the data show it: actives have a measured EC50 and inactives only a lower limit.

Biological target: T1, Apoptotic protease-activating factor 1 (Homo sapiens, UniProt O14727)
T1 sequence (O14727 whole entry): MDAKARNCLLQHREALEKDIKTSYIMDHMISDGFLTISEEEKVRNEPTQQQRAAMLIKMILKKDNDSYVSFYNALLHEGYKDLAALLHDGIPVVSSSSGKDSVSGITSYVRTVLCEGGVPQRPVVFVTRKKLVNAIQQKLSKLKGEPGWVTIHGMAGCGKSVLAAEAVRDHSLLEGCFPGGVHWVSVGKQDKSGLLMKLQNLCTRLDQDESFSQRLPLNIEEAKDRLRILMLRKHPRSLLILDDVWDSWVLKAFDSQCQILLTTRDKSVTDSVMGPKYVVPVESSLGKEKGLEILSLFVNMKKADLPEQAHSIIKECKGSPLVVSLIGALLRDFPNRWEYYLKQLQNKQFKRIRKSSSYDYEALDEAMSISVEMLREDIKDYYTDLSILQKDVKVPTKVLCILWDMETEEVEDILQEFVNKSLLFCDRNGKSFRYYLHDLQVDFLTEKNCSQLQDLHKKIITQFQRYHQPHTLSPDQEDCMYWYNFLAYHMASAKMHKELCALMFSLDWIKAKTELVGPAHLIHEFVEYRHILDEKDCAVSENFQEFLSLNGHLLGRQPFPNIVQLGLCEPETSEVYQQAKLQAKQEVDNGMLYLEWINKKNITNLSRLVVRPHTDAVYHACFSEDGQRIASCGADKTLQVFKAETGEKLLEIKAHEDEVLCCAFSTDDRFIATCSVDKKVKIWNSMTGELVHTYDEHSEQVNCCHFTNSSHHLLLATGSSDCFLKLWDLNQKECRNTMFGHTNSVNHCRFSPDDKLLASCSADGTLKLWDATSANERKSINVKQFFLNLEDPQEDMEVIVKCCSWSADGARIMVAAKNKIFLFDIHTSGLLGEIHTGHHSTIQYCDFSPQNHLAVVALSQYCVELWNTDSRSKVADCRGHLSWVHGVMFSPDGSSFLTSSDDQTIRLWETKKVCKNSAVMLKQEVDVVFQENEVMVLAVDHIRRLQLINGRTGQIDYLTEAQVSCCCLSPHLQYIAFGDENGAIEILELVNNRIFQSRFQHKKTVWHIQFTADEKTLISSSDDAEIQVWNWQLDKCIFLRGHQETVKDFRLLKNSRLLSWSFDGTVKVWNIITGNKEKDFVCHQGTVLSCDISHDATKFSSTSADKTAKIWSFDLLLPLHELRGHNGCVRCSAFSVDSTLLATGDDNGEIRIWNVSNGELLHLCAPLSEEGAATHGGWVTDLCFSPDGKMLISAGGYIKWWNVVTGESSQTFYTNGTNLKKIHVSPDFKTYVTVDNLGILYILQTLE
Assay: SAR analysis of small molecule Activators of Apaf-1 in a Fluorescent assay.
Format: functional
Conditions: read-out: EC50_Mean
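Also: caspase-3 cleavage of fluorogenic Rh110 DEVD substrate downstream of apoptosome activation.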

## COc1ccc(C(=O)NC(CCc2ccccc2)CC(=O)O)cc1 (stereo unspecified)
  EC50: > 100 µM (inactive)
